Results on 16 compounds are retold here after patent publication US9365522B2, “Pyrazole amide derivative” (AMGEN INC., priority 2015, dated 2016).

A value given as a limit tells only on which side of the number the result lay.

The target of this assay is T1, ligand binding domain of human ROR gamma (Homo sapiens, UniProt P51449).
T1 construct: NM_001001523; expressed in transfected cells; host or cells: HEK293T
T1 sequence (P51449 247-497 isoform P51449-2): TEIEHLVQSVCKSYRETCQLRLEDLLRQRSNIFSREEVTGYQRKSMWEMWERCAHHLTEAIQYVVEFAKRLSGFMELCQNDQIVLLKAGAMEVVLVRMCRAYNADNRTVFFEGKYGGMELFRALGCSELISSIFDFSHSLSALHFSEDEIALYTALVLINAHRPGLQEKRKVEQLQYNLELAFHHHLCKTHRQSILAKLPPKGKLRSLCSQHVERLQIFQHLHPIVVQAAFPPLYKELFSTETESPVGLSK
Nature of the assay: ROR gamma reporter gene assay (GAL4-RORγ LBD luciferase, Dual-Glo). It is filed as cell-based. To be noted: HEK293T cells transfected with pM-ROR gamma, 8 concentrations 3.5 nM to 10.5 μM, 24 h incubation; read-out: result (pIC50, inhibition of RORγ transcriptional activity) (converted). In outline:
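HEK293T cells co-transfected with GAL4-DBD fused to human RORγ LBD (aa 247-497), 5×UAS firefly luciferase reporter and CMV-renilla, in charcoal-stripped serum.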
(In a reporter assay the amount or activity of a reporter protein is the signal.)
As for `CC(C)(C)CN(CC(=O)c1c(Cl)cc(F)cc1Cl)C(=O)c1cnn(C23CCC(C(=O)O)(CC2)CC3)c1C(F)(F)F` [Example 245, 4-(4-((2-(2,6-dichloro-4-fluorophenyl)-2-oxoethyl)-(2,2-dimethylpropyl)carbamoyl)-5-(trifluoromethyl)pyrazol-1-yl)bicyclo[2.2.2]octane-1-carboxylic acid], the IC50 was 8910 pM.

For `CC(C)(C)CN(CC(=O)c1c(Cl)cc(Cl)cc1Cl)C(=O)c1cnn(C23CCC(C(=O)O)(CC2)CC3)c1C(F)(F)F` [Example 246, 4-(4-(2,2-dimethylpropyl-(2-oxo-2-(2,4,6-trichlorophenyl)ethyl)carbamoyl)-5-(trifluoromethyl)pyrazol-1-yl)bicyclo[2.2.2]octane-1-carboxylic acid], the IC50 was 11500 pM.

For the compound `CC1(C)[C@@H]2C[C@H](N(CC(=O)c3c(Cl)cccc3C(F)(F)F)C(=O)c3cnn(C45CCC(C(=O)O)(CC4)CC5)c3C(F)(F)F)C[C@@H]21` [Example 247, 4-(4-((2-(2-chloro-6-(trifluoromethyl)phenyl)-2-oxoethyl)-((1R,3r,5S)-6,6-dimethyl-3-bicyclo[3.1.0]hexanyl)carbamoyl)-5-(trifluoromethyl)pyrazol-1-yl)bicyclo[2.2.2]octane-1-carboxylic acid], the IC50 is 32400 pM.

As to `COc1cccc(Cl)c1C(=O)CN(C(=O)c1cnn(C23CCC(C(=O)O)(CC2)CC3)c1C(F)(F)F)[C@H]1C[C@@H]2[C@H](C1)C2(C)C` [Example 248, 4-(4-((2-(2-chloro-6-methoxyphenyl)-2-oxoethyl)-((1R,3r,5S)-6,6-dimethyl-3-bicyclo[3.1.0]hexanyl)carbamoyl)-5-(trifluoromethyl)pyrazol-1-yl)bicyclo[2.2.2]octane-1-carboxylic acid], the IC50 is 21400 pM.

Take `CC1(C)CC(CN(CC(=O)c2c(Cl)cc(F)cc2Cl)C(=O)c2cnn([C@H]3CC[C@](C)(C(=O)O)CC3)c2C(F)(F)F)C1` [Example 249, trans-4-(4-((2-(2,6-dichloro-4-fluorophenyl)-2-oxoethyl)-((3,3-dimethylcyclobutyl)methyl)carbamoyl)-5-(trifluoromethyl)pyrazol-1-yl)-1-methylcyclohexane-1-carboxylic acid]: the IC50 was less than 3470 pM.

On to `CC1(C)CC(CN(CC(=O)c2c(Cl)cc(Cl)cc2Cl)C(=O)c2cnn([C@H]3CC[C@](C)(C(=O)O)CC3)c2C(F)(F)F)C1` [Example 250, trans-4-(4-((3,3-dimethylcyclobutyl)methyl-(2-oxo-2-(2,4,6-trichlorophenyl)ethyl)carbamoyl)-5-(trifluoromethyl)pyrazol-1-yl)-1-methylcyclohexane-1-carboxylic acid], for which the IC50 was less than 3470 pM.

With `CC1(C)CC(CN(CC(=O)c2c(Cl)cccc2C(F)(F)F)C(=O)c2cnn([C@H]3CC[C@](C)(C(=O)O)CC3)c2C(F)(F)F)C1` [Example 251, trans-4-(4-((2-(2-chloro-6-(trifluoromethyl)phenyl)-2-oxoethyl)-((3,3-dimethylcyclobutyl)methyl)carbamoyl)-5-(trifluoromethyl)pyrazol-1-yl)-1-methylcyclohexane-1-carboxylic acid], the IC50 was 6030 pM.

Turning to `COc1cccc(Cl)c1C(=O)CN(CC1CC(C)(C)C1)C(=O)c1cnn([C@H]2CC[C@](C)(C(=O)O)CC2)c1C(F)(F)F` [Example 252, trans-4-(4-((2-(2-chloro-6-methoxyphenyl)-2-oxoethyl)-((3,3-dimethylcyclobutyl)methyl)carbamoyl)-5-(trifluoromethyl)pyrazol-1-yl)-1-methylcyclohexane-1-carboxylic acid], the IC50 is 10000 pM.

As to `COc1cccc(Cl)c1C(=O)CN(CC(C)(C)C)C(=O)c1cnn([C@H]2CC[C@](C)(C(=O)O)CC2)c1C(F)(F)F` [Example 253, trans-4-(4-((2-(2-chloro-6-methoxyphenyl)-2-oxoethyl)-(2,2-dimethylpropyl)carbamoyl)-5-(trifluoromethyl)pyrazol-1-yl)-1-methylcyclohexane-1-carboxylic acid], the IC50 was 45700 pM.

Consider `COc1cccc(Cl)c1C(=O)CN(C(=O)c1cnn([C@H]2CC[C@](C)(C(=O)O)CC2)c1C(F)(F)F)C1CCC(C)(C)CC1` [Example 255, trans-4-(4-((2-(2-chloro-6-methoxyphenyl)-2-oxoethyl)-(4,4-dimethylcyclohexyl)carbamoyl)-5-(trifluoromethyl)pyrazol-1-yl)-1-methylcyclohexane-1-carboxylic acid], for which the IC50 was 55000 pM.

Regarding `CC1(C)CC(CN(CC(=O)c2c(Cl)cc(Cl)cc2Cl)C(=O)c2cnn(C34CCC(C(=O)O)(CC3)CC4)c2C(F)(F)F)C1` [Example 256, 4-(4-((3,3-dimethylcyclobutyl)methyl-(2-oxo-2-(2,4,6-trichlorophenyl)ethyl)carbamoyl)-5-(trifluoromethyl)pyrazol-1-yl)bicyclo[2.2.2]octane-1-carboxylic acid], the IC50 is 6030 pM.

As for `COc1cccc(Cl)c1C(=O)CN(CC1CC(C)(C)C1)C(=O)c1cnn(C23CCC(C(=O)O)(CC2)CC3)c1C(F)(F)F` [Example 257, 4-(4-((2-(2-chloro-6-methoxyphenyl)-2-oxoethyl)-((3,3-dimethylcyclobutyl)methyl)carbamoyl)-5-(trifluoromethyl)pyrazol-1-yl)bicyclo[2.2.2]octane-1-carboxylic acid], the IC50 was 20000 pM.

Take `CC1(C)CC(CN(CC(=O)c2c(Cl)cccc2C(F)(F)F)C(=O)c2cnn(C34CCC(C(=O)O)(CC3)CC4)c2C(F)(F)F)C1` [Example 258, 4-(4-((2-(2-chloro-6-(trifluoromethyl)phenyl)-2-oxoethyl)-((3,3-dimethylcyclobutyl)methyl)carbamoyl)-5-(trifluoromethyl)pyrazol-1-yl)bicyclo[2.2.2]octane-1-carboxylic acid]: the IC50 was 6610 pM.

On to `COc1cccc(Cl)c1C(=O)CN(CC1CCC(C)(C)CC1)C(=O)c1cnn([C@H]2CC[C@](C)(C(=O)O)CC2)c1C(F)(F)F` [Example 259, trans-4-(4-((2-(2-chloro-6-methoxyphenyl)-2-oxoethyl)-((4,4-dimethylcyclohexyl)methyl)carbamoyl)-5-(trifluoromethyl)pyrazol-1-yl)-1-methylcyclohexane-1-carboxylic acid], for which the IC50 is 117000 pM.

`CC12CCC(CN(CC(=O)c3c(Cl)cc(Cl)cc3Cl)C(=O)c3cnn([C@H]4CC[C@](C)(C(=O)O)CC4)c3C(F)(F)F)(CC1)O2` [Example 260, trans-4-(4-((1-methyl-7-oxabicyclo[2.2.1]heptan-4-yl)methyl-(2-oxo-2-(2,4,6-trichlorophenyl)ethyl)carbamoyl)-5-(trifluoromethyl)pyrazol-1-yl)-1-methylcyclohexane-1-carboxylic acid]: the IC50 was 6030 pM.

Regarding `Cc1cc(Cl)c(C(=O)CN(CC23CCC(C)(CC2)O3)C(=O)c2cnn(C34CCC(C(=O)O)(CC3)CC4)c2C(F)(F)F)c(Cl)c1` [Example 261, 4-(4-((2-(2,6-dichloro-4-methylphenyl)-2-oxoethyl)-((1-methyl-7-oxabicyclo[2.2.1]heptan-4-yl)methyl)carbamoyl)-5-(trifluoromethyl)pyrazol-1-yl)bicyclo[2.2.2]octane-1-carboxylic acid], the IC50 was 4570 pM.
